Measured values from ChEMBL document CHEMBL1136462, “The effect of remote chirality on the antibacterial activity of indolinyl, tetrahydroquinolyl and dihydrobenzoxazinyl oxazolidinones” (Bioorg Med Chem Lett, 2003).
In brackets after ≈: the same amount, converted by molar mass.

Legend:
Staphylococcus aureus [1] = test: In vitro antibacterial activity against Staphylococcus aureus UC12673 (SA2); assay type: functional
Staphylococcus aureus [2] = test: In vitro antibacterial activity against methicillin susceptible Staphylococcus aureus UC19213 (MSSA); (SA1); assay type: functional
Moraxella catarrhalis = test: In vitro antibacterial activity against Moraxella catarrhalis 30607 (b-lactamase+).; assay type: functional
Enterococcus faecalis = test: In vitro antibacterial activity against vancomycin susceptible Enterococcus faecalis UC19217 (VSEF); assay type: functional
[3] = tested on: Staphylococcus epidermidis; test: In vitro antibacterial activity against methicillin resistant Staphylococcus epidermis US 12084 (MRSE); assay type: functional
Streptococcus pneumoniae = test: In vitro antibacterial activity against penicillin susceptible Streptococcus pneumoniae UC19912 (PSSP); assay type: functional
Haemophilus influenzae = test: In vitro antibacterial activity against ampicillin resistant Haemophilus influenzae 30063 (AMPR b-lactamase+); assay type: functional
[4] = Half life of compound (9.83 mg/kg) after iv administration was determined in Sprague-Dawley rat; assay type: ADME, organism-based; details: in vivo
[5] = Half life of compound (19.2 mg/kg) after po administration was determined in Sprague-Dawley rat; assay type: ADME, organism-based; details: in vivo
[6] = Tmax of compound (19.2 mg/kg) after po administration was determined in Sprague-Dawley rat; assay type: ADME, organism-based; details: in vivo
[7] = Clearance (Cl) of compound (9.83 mg/kg) after iv administration was determined in Sprague-Dawley rat; assay type: ADME, organism-based; details: in vivo
[8] = Oral bioavailability of compound (19.2 mg/kg) after po administration was determined in Sprague-Dawley rat; assay type: ADME, organism-based; details: in vivo
[9] = Maximum plasma concentration (Cmax) of compound (19.2 mg/kg) after po administration was determined Sprague-Dawley rat; assay type: ADME, organism-based; design: dose 19.2 mg/kg, route oral
[10] = Maximum plasma concentration (Cmax) of compound (9.83 mg/kg) after iv administration was determined Sprague-Dawley rat; assay type: ADME, organism-based; design: dose 9.83 mg/kg, route intravenous
[11] = Steady state volume distribution (Vss) of compound(9.83 mg/kg) after iv administration was determined in Sprague-Dawley rat; assay type: ADME, organism-based; details: in vivo, read-out: Vss
Mus musculus = test: In vivo efficacy of compound against Staphylococcus aureus UC9213 was determined after peroral administration in mouse; assay type: functional; details: po

| SMILES | MIC (Staphylococcus aureus [1]) [µg/mL] | MIC (Staphylococcus aureus [2]) [µg/mL] | MIC (Moraxella catarrhalis) [µg/mL] | MIC (Enterococcus faecalis) [µg/mL] | MIC [3] [µg/mL] | MIC (Streptococcus pneumoniae) [µg/mL] | MIC (Haemophilus influenzae) [µg/mL] | half-life [4] [min] | half-life [5] [min] | Tmax [6] [min] | clearance [7] [mL/min/kg] | bioavailability [8] [%] | Cmax [9] [ng/mL] | Cmax [10] [ng/mL] | Vd [11] [L/kg] | ED50 (Mus musculus) [mg/kg] |
| --- | --- | --- | --- | --- | --- | --- | --- | --- | --- | --- | --- | --- | --- | --- | --- | --- |
| CC(=O)NC[C@H]1CN(c2ccc3c(c2)CC[C@@H](C)N3C=O)C(=O)O1 | 1 (≈ 3.02 µM) | 2 (≈ 6.04 µM) | 4 (≈ 12.1 µM) | 1 (≈ 3.02 µM) | < 0.5 | < 0.5 | 32 (≈ 96.6 µM) | – | – | – | – | – | – | – | – | – |
| C/C(S)=N/C[C@H]1CN(c2ccc3c(c2)OC[C@@H](C)N3C=O)C(=O)O1 | < 0.5 | < 0.5 | 2 (≈ 5.72 µM) | 1 (≈ 2.86 µM) | < 0.5 | 0.5 (≈ 1.43 µM) | 32 (≈ 91.6 µM) | – | – | – | – | – | – | – | – | – |
| CC(=O)NC[C@H]1CN(c2ccc3c(c2)C[C@H](C)N3C=O)C(=O)O1 | 8 (≈ 25.2 µM) | 8 (≈ 25.2 µM) | > 64 | 16 (≈ 50.4 µM) | 4 (≈ 12.6 µM) | 4 (≈ 12.6 µM) | > 64 | – | – | – | – | – | – | – | – | – |
| CC(=O)NC[C@H]1CN(c2ccc3c(c2)C[C@H](C)N3C(=O)CO)C(=O)O1 | 8 (≈ 23 µM) | 8 (≈ 23 µM) | 16 (≈ 46.1 µM) | 8 (≈ 23 µM) | 2 (≈ 5.76 µM) | 1 (≈ 2.88 µM) | > 16 | – | – | – | – | – | – | – | – | – |
| C/C(S)=N/C[C@H]1CN(c2ccc3c(c2)C[C@@H](C)N3C=O)C(=O)O1 | < 0.5 | < 0.5 | 1 (≈ 3 µM) | < 0.5 | < 0.5 | < 0.5 | 2 (≈ 6 µM) | 6 | 36.6 | 30 | 28.9 | 30.8 | 1130 | 13600 | 0.64 | 7.5 |
| CC(=O)NC[C@H]1CN(c2ccc3c(c2)OC[C@H](C)N3C=O)C(=O)O1 | 8 (≈ 24 µM) | 8 (≈ 24 µM) | 32 (≈ 96 µM) | 32 (≈ 96 µM) | < 4 | < 4 | 64 (≈ 192 µM) | – | – | – | – | – | – | – | – | – |
| CC(=O)NC[C@H]1CN(c2ccc3c(c2)C[C@@H](C)N3)C(=O)O1 | 8 (≈ 27.6 µM) | 8 (≈ 27.6 µM) | > 61 | 16 (≈ 55.3 µM) | 4 (≈ 13.8 µM) | 4 (≈ 13.8 µM) | > 64 | – | – | – | – | – | – | – | – | – |
| CC(=O)NC[C@H]1CN(c2ccc3c(c2)C[C@H](C)N3)C(=O)O1 | 32 (≈ 111 µM) | 32 (≈ 111 µM) | > 64 | 64 (≈ 221 µM) | 16 (≈ 55.3 µM) | – | > 64 | – | – | – | – | – | – | – | – | – |
